Reference: patent US20180099931A1 (AbbVie S.à.r.l., priority 2016, published 2018)
Read-outs that look alike come from different tables or passages of the source.

Target: T1, F508delCFTR (Homo sapiens, UniProt P13569, DEL508-508)
T1 construct: expressed in transfected cells; host or cells: CFBE41o- human lung-derived epithelial cells (CFBE4lo-F508delCFTR-HRP), doxycycline-inducible
Experiment: Cell Surface Expression-Horse Radish Peroxidase (CSE-HRP) Assay;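 on Maximum % activity (with co-corrector): co-corrector and positive control are both the same reference corrector at 2 µM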;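 on Maximum % activity (without co-corrector): percent of the 2 µM on-plate positive control corrector response above DMSO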
Format: cell-based
Settings: CSE-HRP; for Maximum % activity (with co-corrector): with co-corrector (2 μM); for Maximum % activity (with co-corrector) / Emax: maximum at any tested concentration, normalized to on-plate positive control; for Emax: without co-corrector, read-out: Maximum % activity (without co-corrector)

[1] = test compound without co-corrector, read-out: EC50 (without co-corrector)
[2] = with co-corrector (2 μM of 3-[(2R,4R)-4-({[1-(2,2-difluoro-1,3-benzodioxol-5-yl)cyclopropyl]carbonyl}amino)-7-methoxy-3,4-dihydro-2H-chromen-2-yl]benzoic acid), read-out: EC50 (with co-corrector)

T1 sequence (P13569 with tags, fused parts or gaps DEL508-508): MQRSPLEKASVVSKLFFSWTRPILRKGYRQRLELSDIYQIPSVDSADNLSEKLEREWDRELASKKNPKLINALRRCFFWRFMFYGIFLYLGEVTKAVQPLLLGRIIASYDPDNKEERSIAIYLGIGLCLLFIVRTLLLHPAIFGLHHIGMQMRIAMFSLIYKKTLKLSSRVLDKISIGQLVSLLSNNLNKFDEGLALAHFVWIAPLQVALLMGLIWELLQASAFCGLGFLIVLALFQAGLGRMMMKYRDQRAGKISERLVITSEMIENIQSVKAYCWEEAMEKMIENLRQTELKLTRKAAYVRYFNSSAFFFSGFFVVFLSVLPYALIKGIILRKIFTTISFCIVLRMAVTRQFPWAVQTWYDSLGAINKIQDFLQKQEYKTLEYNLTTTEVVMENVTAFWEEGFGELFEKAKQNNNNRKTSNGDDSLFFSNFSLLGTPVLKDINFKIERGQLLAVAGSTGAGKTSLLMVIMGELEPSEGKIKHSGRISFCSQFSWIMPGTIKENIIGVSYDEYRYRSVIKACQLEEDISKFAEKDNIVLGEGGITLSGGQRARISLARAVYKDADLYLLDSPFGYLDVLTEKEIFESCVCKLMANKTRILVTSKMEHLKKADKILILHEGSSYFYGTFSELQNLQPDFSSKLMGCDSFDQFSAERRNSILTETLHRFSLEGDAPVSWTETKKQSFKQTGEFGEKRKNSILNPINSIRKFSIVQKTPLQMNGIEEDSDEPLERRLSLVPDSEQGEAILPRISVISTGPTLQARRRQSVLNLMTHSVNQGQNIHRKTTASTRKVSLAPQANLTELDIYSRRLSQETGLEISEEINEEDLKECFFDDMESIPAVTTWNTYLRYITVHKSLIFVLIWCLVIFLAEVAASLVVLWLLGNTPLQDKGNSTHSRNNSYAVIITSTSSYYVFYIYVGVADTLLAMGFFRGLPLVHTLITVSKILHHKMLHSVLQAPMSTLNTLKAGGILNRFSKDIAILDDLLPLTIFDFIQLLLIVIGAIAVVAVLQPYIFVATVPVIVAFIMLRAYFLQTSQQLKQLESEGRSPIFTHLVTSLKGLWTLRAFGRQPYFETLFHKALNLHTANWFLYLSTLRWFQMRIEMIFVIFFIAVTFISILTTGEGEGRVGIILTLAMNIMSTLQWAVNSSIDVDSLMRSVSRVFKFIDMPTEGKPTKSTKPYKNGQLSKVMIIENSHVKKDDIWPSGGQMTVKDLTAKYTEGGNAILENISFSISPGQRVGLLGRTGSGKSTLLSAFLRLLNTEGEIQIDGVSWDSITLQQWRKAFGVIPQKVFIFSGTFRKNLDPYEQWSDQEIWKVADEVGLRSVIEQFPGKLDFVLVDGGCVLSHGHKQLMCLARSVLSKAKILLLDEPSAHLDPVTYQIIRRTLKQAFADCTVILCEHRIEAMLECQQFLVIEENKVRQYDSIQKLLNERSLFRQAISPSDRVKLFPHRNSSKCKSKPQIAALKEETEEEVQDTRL

| SMILES | EC50 [1] [µM] | EC50 [2] [µM] | Maximum % activity (with co-corrector) | Emax [%] |
| --- | --- | --- | --- | --- |
| COc1ccc(-c2ccccc2)cc1CN[C@H]1[C@H](C(C)(C)C)[C@@H](C(=O)O)N(C(=O)OC(C)C)[C@H]1c1ccccc1 [II-160] | 1 to 10 | < 1 | +++ (≥350) | > 200 |
| COc1cc(C(F)(F)F)ccc1CN[C@H]1[C@H](C(C)(C)C)[C@@H](C(=O)O)N(C(=O)OCC(C)C)[C@H]1c1ccccc1 [II-161] | 1 to 10 | < 1 | +++ (≥350) | 100 to 200 |
| COc1ccc(C(C)(C)C)cc1CN[C@H]1[C@H](C(C)(C)C)[C@@H](C(=O)O)N(C(=O)CC2CCOCC2)[C@H]1c1ccccc1 [II-162] | 1 to 10 | 1 to 10 | +++ (≥350) | 100 to 200 |
| COc1ccc(C(F)(F)F)cc1CN[C@H]1[C@H](C(C)(C)C)[C@@H](C(=O)O)N(C(=O)C2CCc3ccccc3O2)[C@H]1c1ccccc1 (stereo partly drawn) [II-163] | 1 to 10 | < 1 | +++ (≥350) | < 100 |
| COc1ccc(C(C)(C)C)cc1CN[C@H]1[C@H](C(C)(C)C)[C@@H](C(=O)O)N(C(=O)C2OCCc3ccccc32)[C@H]1c1ccccc1 (stereo partly drawn) [II-165] | 1 to 10 | < 1 | +++ (≥350) | > 200 |
| CC(C)c1ccccc1CN[C@H]1[C@H](C(C)(C)C)[C@@H](C(=O)O)N(C(=O)C2CCCCC2)[C@H]1c1ccccc1 [II-166] | < 1 | < 1 | +++ (≥350) | 100 to 200 |
| CC(C)(C)[C@H]1[C@H](NC2CCOc3ccc(Cl)cc32)[C@H](c2ccccc2)N(C(=O)C2CCCCC2)[C@@H]1C(=O)O (stereo partly drawn) [II-167] | 1 to 10 | 1 to 10 | ++ (≥150 and <350) | < 100 |
| COc1ccc(C(C)C)cc1CN[C@H]1[C@H](C(C)(C)C)[C@@H](C(=O)O)N(C(=O)C2CCCCC2)[C@H]1c1ccccc1 [II-168] | 1 to 10 | < 1 | +++ (≥350) | > 200 |
| COc1ccc(C(C)C)cc1CN[C@H]1[C@H](C(C)(C)C)[C@@H](C(=O)O)N(C(=O)OC(C)C)[C@H]1c1ccccc1 [II-169] | 1 to 10 | 1 to 10 | +++ (≥350) | > 200 |
| COc1ncc(Br)cc1CN[C@H]1[C@H](C(C)(C)C)[C@@H](C(=O)O)N(C(=O)OC(C)C)[C@H]1c1ccccc1 [II-170] | 1 to 10 | 1 to 10 | +++ (≥350) | > 200 |
| COc1ccc(Br)cc1CN[C@H]1[C@H](C(C)(C)C)[C@@H](C(=O)O)N(C(=O)OC(C)C)[C@H]1c1ccccc1 [II-171] | 1 to 10 | 1 to 10 | +++ (≥350) | > 200 |
| CCn1c(C)c(CC(=O)N2[C@H](C(=O)O)[C@@H](C(C)(C)C)[C@H](NCc3cc(C(C)(C)C)ccc3OC)[C@@H]2c2ccccc2)c2ccccc21 [II-172] | 1 to 10 | < 1 | +++ (≥350) | > 200 |
| COc1ccc(C(C)(C)C)cc1CN[C@H]1[C@H](C(C)(C)C)[C@@H](C(=O)O)N(C(=O)[C@H]2C[C@H](CCC#N)C[C@H]2C)[C@H]1c1ccccc1 [II-173] | 1 to 10 | 1 to 10 | +++ (≥350) | > 200 |
| COc1ccc(C(C)(C)C)cc1CN[C@H]1[C@H](C(C)(C)C)[C@@H](C(=O)O)N(C(=O)C2CC(C)CCO2)[C@H]1c1ccccc1 (stereo partly drawn) [II-174] | 1 to 10 | 1 to 10 | +++ (≥350) | > 200 |
| COc1ccc(C(C)(C)C)cc1CN[C@H]1[C@H](C(C)(C)C)[C@@H](C(=O)O)N(C(=O)C2CCC(C#N)CC2)[C@H]1c1ccccc1 (stereo partly drawn) [II-175] | 1 to 10 | 1 to 10 | +++ (≥350) | 100 to 200 |
| COc1ccc(C(C)(C)C)cc1CN[C@H]1[C@H](C(C)(C)C)[C@@H](C(=O)O)N(C(=O)CC2CCC(C)(C)OC2)[C@H]1c1ccccc1 (stereo partly drawn) [II-176] | 1 to 10 | 1 to 10 | +++ (≥350) | 100 to 200 |
| COc1ccc(C(C)(C)C)cc1CN[C@H]1[C@H](C(C)(C)C)[C@@H](C(=O)O)N(C(=O)CC23CC(C2)C3)[C@H]1c1ccccc1 [II-177] | 1 to 10 | < 1 | +++ (≥350) | > 200 |
| COc1ccc(C(C)(C)C)cc1CN[C@H]1[C@H](C(C)(C)C)[C@@H](C(=O)O)N(C(=O)C[C@H]2OCCc3ccccc32)[C@H]1c1ccccc1 [II-178] | 1 to 10 | < 1 | +++ (≥350) | > 200 |
| COc1ccc(C(C)(C)C)cc1CN[C@H]1[C@H](C(C)(C)C)[C@@H](C(=O)O)N(C(=O)CC2CCCOC2)[C@H]1c1ccccc1 (stereo partly drawn) [II-179] | 1 to 10 | 1 to 10 | +++ (≥350) | > 200 |
| COc1ccc(C(C)(C)C)cc1CN[C@H]1[C@H](C(C)(C)C)[C@@H](C(=O)O)N(C(=O)Cc2ccccc2)[C@H]1c1ccccc1 [II-180] | 1 to 10 | < 1 | +++ (≥350) | > 200 |
| COc1ccc(C(C)(C)C)cc1CN[C@H]1[C@H](C(C)(C)C)[C@@H](C(=O)O)N(C(=O)Cc2ccc(F)cc2)[C@H]1c1ccccc1 [II-181] | 1 to 10 | 1 to 10 | +++ (≥350) | 100 to 200 |
| COc1ccc(C(C)(C)C)cc1CN[C@H]1[C@H](C(C)(C)C)[C@@H](C(=O)O)N(C(=O)Cc2cccs2)[C@H]1c1ccccc1 [II-182] | 1 to 10 | < 1 | +++ (≥350) | > 200 |
| COc1ccc(C(C)(C)C)cc1CN[C@H]1[C@H](C(C)(C)C)[C@@H](C(=O)O)N(C(=O)Cc2ccccc2Cl)[C@H]1c1ccccc1 [II-183] | < 1 | < 1 | +++ (≥350) | > 200 |
| COc1ccc(C(C)(C)C)cc1CN[C@H]1[C@H](C(C)(C)C)[C@@H](C(=O)O)N(C(=O)Cc2cccnc2)[C@H]1c1ccccc1 [II-184] | 1 to 10 | 1 to 10 | +++ (≥350) | 100 to 200 |
| COc1ccc(C(C)(C)C)cc1CN[C@H]1[C@H](C(C)(C)C)[C@@H](C(=O)O)N(C(=O)c2coc3ccccc23)[C@H]1c1ccccc1 [II-185] | < 1 | < 1 | +++ (≥350) | < 100 |
| COc1ccc(C(C)(C)C)cc1CN[C@H]1[C@H](C(C)(C)C)[C@@H](C(=O)O)N(C(=O)C2CCCC(C(F)(F)F)C2)[C@H]1c1ccccc1 (stereo partly drawn) [II-186] | < 1 | < 1 | +++ (≥350) | > 200 |
| COc1ccc(C(C)(C)C)cc1CN[C@H]1[C@H](C(C)(C)C)[C@@H](C(=O)O)N(C(=O)CN2CCCC2)[C@H]1c1ccccc1 [II-187] | 1 to 10 | 1 to 10 | ++ (≥150 and <350) | < 100 |
